Data on six molecules can be found in US8465963B2, “Grass endophyte enhanced attributes” (priority 2005, dated 2013).

Structures are written as SMILES.

Data set [1] deals with Neotyphodium endophytes in perennial ryegrass. The settings on record: fungicide soak; cited from earlier work.
Data set [2] deals with Neotyphodium endophytes in tall fescue. The settings on record: fungicide soak; cited from earlier work.
For data set [3], the system named is endophytes (AR502, AR542 and AR584). In words: Trial 1 field trial: effect of fungicides on viable endophytes, means over endophytes. To be noted: means of all other treatments. The source says:
The pH of the solution is 7.5.

The test system of data set [4] is ryegrass (Lolium perenne) seed infected with Neotyphodium endophyte. The settings on record: prochloraze 1 g/kg; triticonazole 5 and 10 g/kg; cited from earlier work.

Turning to `COC(=O)NC(=S)Nc1ccccc1NC(=S)NC(=O)OC` [Thiophanate-methyl], the “effect of fungicide on endophyte” value is recorded as “little effect on endophyte” in data set [1] and “no effect on endophyte” in data set [2].
Turning to `O=CNC(N1CCN(C(NC=O)C(Cl)(Cl)Cl)CC1)C(Cl)(Cl)Cl` (stereo not drawn) [Triforine], the “effect of fungicide on endophyte” value in data set [1] is “effective in some perennial ryegrass plants”; in data set [2], “effective in tall fescue”.
As for `CCCCNC(=O)n1c(NC(=O)OC)nc2ccccc21` [benomyl], the “effect of fungicide on endophyte” value in data set [1] and in data set [2] was “effective in killing endophyte” in each case.
Consider `Fc1ccc([C@]2(Cn3cncn3)O[C@H]2c2ccccc2Cl)cc1` [epiconazole], for which the “level of viable endophyte” value in data set [3] is listed as “most significantly reducing viable endophyte levels”.
Turning to `CCCN(CCOc1c(Cl)cc(Cl)cc1Cl)C(=O)n1ccnc1` [prochloraze], the seed germination result in data set [4] is reported as “effected”.
Take `CC1(C)CCC(=Cc2ccc(Cl)cc2)C1(O)Cn1cncn1` (stereo not drawn) [triticonazole]: in data set [4], the seed germination result is recorded as “effected”.
